Test [1] deals with C. atrox venom MP. The experiment in a line: HTS for inhibitors of C. Atrox venom MP. It is filed as biochemical. The following applies: for percental (%) reduction of MP activity: compounds approximately 10 μM/well. As for the experimental part: (§1) Background. Phospholipase A2 (PLA2) catalyzes the hydrolysis of phospholipids at the sn-2 position yielding a free fatty acid and a lysophospholipid. The release of arachidonic acid from membrane phospholipids by PLA is believed to be a key step in the control of eicosanoid production within the cell. The Bee Venom PLA2 Control was a 100 μg/ml solution of bee venom PLA2 is supplied as a positive control in the kit (Abcam kit catalog number ab133089). Substrate for MP was DQ Gelatin and assay run per EnzChek gelatinase assay manufacturers instructions. Venom MP activity was not optimized in initial experiments, but reaction rates were during experiments performed by an independently contracted laboratory. SP assay was performed using Nα-Benzoyl-L-arginine-7-amido-4-methylcoumarin hydrochloride. These kits were stored as specified if stored at −20° C. Unless otherwise specified, in the case of my experiments, only crude, unfractionated lyophilized venom purchased from Sigma or the Miami Serpentarium were used. Plate Setup: Manufacturers guidelines (paraphrased herein) were followed unless otherwise specified. Data Analysis: xcel per manufacturers recommendations. MP and SP assays were prepared and plated in the same manner as PLA2 assays except substrates and fluorophores were different. PBS was the buffer in the case of MP and SP assays and absorbance measured at 495 nm. Substrate for MP was DQ Gelatin and assay run per EnzChek gelatinase assay manufacturers instructions except that experiments were run, unconventionally at 37 C to estimate human body temperature and initial experiments for PLA2, MP activity and SP activity were not optimized for screening (e.g. extremely high doses of venom were used—10 mg/mL stock in all cases since the quality of the venom was unknown with final concentration of 0.444 mg/mL in the test wells). SP assay was performed using Na-Benzoyl-L-arginine-7-amido-4-methylcoumarin hydrochloride (Sigma). Specifics of contract laboratory technique vary from the present inventor's initial experiments in terms of venom and substrate optimization, plate size (384 instead of 96), volume and temperature and other factors including different operators such as those described immediately below, performed following the first pilot experiments and subsequently extended by a contract laboratory.
(§2) Small molecule screening and dose-response experiments took place in the Yale Center for Molecular Discovery. Instrumentation used when indicated included Tecan EVO (2), Tecan Aquarius, Matrix PlateMatePlus (2), Matrix PlateMate2×2 liquid transfer robots and Titertek and Thermo Multidrop liquid dispensers (7). PerkinElmer EnVision (3) and Tecan infinite M1000 (2) plate readers sensitively measure absorbance, fluorescence, fluorescence polarization and luminescence in 96- and 384-well plate formats. A GE InCell Analyzer 2200 imaging system acquires multicolor fluorescent and transmitted light images from plates. Piloting collections used in the first phases of screening were selected by the inventor or from libraries of known compounds and natural products available at the time of experiments on selected venoms including: NCC, GenPlus, Pharmakon, Bioactive lipids, Protease Inhibitors, Procured Drugs and FDA Approved Drugs libraries. The GenPlus (the NINDS Custom Collection) from MicroSource Discovery Systems contains 960 compounds. […]

Test [2] deals with E. carinatus venom MP. Description: HTS for inhibitors of E. carinatus venom MP. The test is classed as biochemical. The following applies: compounds approximately 10 μM/well. As for the experimental part: as §1, §2
Test [3] concerns M. fulvius venom PLA2. The experiment in a line: HTS for inhibitors of M. fulvius venom PLA2. The note with it: compounds approximately 10 μM/well. The test is classed as biochemical.
In test [4] the test system is snake venom metalloproteinase. Description: time course of metalloproteinase activity with excess venom (FIG. 2A). It is filed as biochemical. The following applies: inhibitors 100 uM; venom 0.444 mg/mL.
Procedure: Substrate for MP was DQ Gelatin and assay run per EnzChek gelatinase assay manufacturers instructions. Venom MP activity was not optimized in initial experiments, but reaction rates were during experiments performed by an independently contracted laboratory. SP assay was performed using Nα-Benzoyl-L-arginine-7-amido-4-methylcoumarin hydrochloride. […] Unless otherwise specified, in the case of my experiments, only crude, unfractionated lyophilized venom purchased from Sigma or the Miami Serpentarium were used. Plate Setup: Manufacturers guidelines (paraphrased herein) were followed unless otherwise specified. Data Analysis: xcel per manufacturers recommendations. MP and SP assays were prepared and plated in the same manner as PLA2 assays except substrates and fluorophores were different. PBS was the buffer in the case of MP and SP assays and absorbance measured at 495 nm. Substrate for MP was DQ Gelatin and assay run per EnzChek gelatinase assay manufacturers instructions except that experiments were run, unconventionally at 37 C to estimate human body temperature and initial experiments for PLA2, MP activity and SP activity were not optimized for screening (e.g. extremely high doses of venom were used—10 mg/mL stock in all cases since the quality of the venom was unknown with final concentration of 0.444 mg/mL in the test wells). SP assay was performed using Na-Benzoyl-L-arginine-7-amido-4-methylcoumarin hydrochloride (Sigma). Specifics of contract laboratory technique vary from the present inventor's initial experiments in terms of venom and substrate optimization, plate size (384 instead of 96), volume and temperature and other factors including different operators such as those described immediately below, performed following the first pilot experiments and subsequently extended by a contract laboratory.
Screening was carried out for inhibitors of venom sPLA2, MP and SPs. Stock solutions of venom at 10 mg/mL were used without typical dilution for assaying various inhibitors of sPLA2, MP and SPs. The final venom concentration in the assays was very high at 0.444 mg/mL.
The target in test [5] is bee venom PLA2 (Apis mellifera, UniProt P00630). It is filed as biochemical.
Chain of bee venom PLA2 (P00630 34-167 limits assumed): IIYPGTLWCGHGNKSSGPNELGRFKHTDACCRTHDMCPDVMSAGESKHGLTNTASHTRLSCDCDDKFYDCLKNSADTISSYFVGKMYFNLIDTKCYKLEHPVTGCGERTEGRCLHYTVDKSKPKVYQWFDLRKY
The target of test [6] is snake venom metalloproteinase. Description: IC50 for MP inhibition on various venoms (Table 8, FIG. 20). The test is classed as biochemical. The note with it: general statement; values only in figures.
The test system of test [7] is Daboia russelli venom MP. Description: metalloproteinase activity over time, Daboia russelli venom (FIG. 2B). The test is classed as biochemical. The following applies: 100 uM; venom 0.444 mg/mL.
Procedure: Substrate for MP was DQ Gelatin and assay run per EnzChek gelatinase assay manufacturers instructions. Venom MP activity was not optimized in initial experiments, but reaction rates were during experiments performed by an independently contracted laboratory. […] These kits were stored as specified if stored at −20° C. Unless otherwise specified, in the case of my experiments, only crude, unfractionated lyophilized venom purchased from Sigma or the Miami Serpentarium were used. Plate Setup: Manufacturers guidelines (paraphrased herein) were followed unless otherwise specified. Data Analysis: xcel per manufacturers recommendations. MP and SP assays were prepared and plated in the same manner as PLA2 assays except substrates and fluorophores were different. PBS was the buffer in the case of MP and SP assays and absorbance measured at 495 nm. Substrate for MP was DQ Gelatin and assay run per EnzChek gelatinase assay manufacturers instructions except that experiments were run, unconventionally at 37 C to estimate human body temperature and initial experiments for PLA2, MP activity and SP activity were not optimized for screening (e.g. extremely high doses of venom were used—10 mg/mL stock in all cases since the quality of the venom was unknown with final concentration of 0.444 mg/mL in the test wells). […]
In test [8] the test system is snake venom serine proteases. The experiment in a line: serine protease activity with excess venom (FIG. 3). The following applies: 100 um; venom 0.444 mg/mL; compared to marimastat and batimastat. It is filed as biochemical.
Procedure: Substrate for MP was DQ Gelatin and assay run per EnzChek gelatinase assay manufacturers instructions. Venom MP activity was not optimized in initial experiments, but reaction rates were during experiments performed by an independently contracted laboratory. SP assay was performed using Nα-Benzoyl-L-arginine-7-amido-4-methylcoumarin hydrochloride. […] Unless otherwise specified, in the case of my experiments, only crude, unfractionated lyophilized venom purchased from Sigma or the Miami Serpentarium were used. Plate Setup: Manufacturers guidelines (paraphrased herein) were followed unless otherwise specified. Data Analysis: xcel per manufacturers recommendations. MP and SP assays were prepared and plated in the same manner as PLA2 assays except substrates and fluorophores were different. PBS was the buffer in the case of MP and SP assays and absorbance measured at 495 nm. Substrate for MP was DQ Gelatin and assay run per EnzChek gelatinase assay manufacturers instructions except that experiments were run, unconventionally at 37 C to estimate human body temperature and initial experiments for PLA2, MP activity and SP activity were not optimized for screening (e.g. extremely high doses of venom were used—10 mg/mL stock in all cases since the quality of the venom was unknown with final concentration of 0.444 mg/mL in the test wells). […]
Test [9] relates to snake venom PLA2. The test is classed as biochemical. Here is the method:
Background. Phospholipase A2 (PLA2) catalyzes the hydrolysis of phospholipids at the sn-2 position yielding a free fatty acid and a lysophospholipid. The release of arachidonic acid from membrane phospholipids by PLA is believed to be a key step in the control of eicosanoid production within the cell. The Bee Venom PLA2 Control was a 100 μg/ml solution of bee venom PLA2 is supplied as a positive control in the kit (Abcam kit catalog number ab133089). Substrate for MP was DQ Gelatin and assay run per EnzChek gelatinase assay manufacturers instructions. Venom MP activity was not optimized in initial experiments, but reaction rates were during experiments performed by an independently contracted laboratory. SP assay was performed using Nα-Benzoyl-L-arginine-7-amido-4-methylcoumarin hydrochloride. These kits were stored as specified if stored at −20° C. Unless otherwise specified, in the case of my experiments, only crude, unfractionated lyophilized venom purchased from Sigma or the Miami Serpentarium were used. Plate Setup: Manufacturers guidelines (paraphrased herein) were followed unless otherwise specified. Data Analysis: xcel per manufacturers recommendations. MP and SP assays were prepared and plated in the same manner as PLA2 assays except substrates and fluorophores were different. PBS was the buffer in the case of MP and SP assays and absorbance measured at 495 nm. […]
Small molecule screening and dose-response experiments took place in the Yale Center for Molecular Discovery. […] PerkinElmer EnVision (3) and Tecan infinite M1000 (2) plate readers sensitively measure absorbance, fluorescence, fluorescence polarization and luminescence in 96- and 384-well plate formats. […]

Test [10] concerns M. fulvius venom. Description: protection of mice from M. fulvius venom (FIG. 6A-D). The test is classed as in vivo. The following applies: methylvarespladib fed ad libitum in biscuits, high-dose venom ~5 hours later; N=2. Here is the method:
Mice received SC injections of M. fulvius venom at ^˜4 times the expected LD50 (typically estimated to be 1.3 mg/kg SC) (0.1 mg M. fulvius venom/animal for approximate dose of ^˜4 mg/kg). Prior to venom injection animals received either total dose 0.1 mg varespladib exipient (sham treatment) by SC route for calculated concentration of 4 mg/kg varespladib ^˜10-15 minutes before venom administration. Surviving animals were euthanized by CO2 inhalation at the end of experiments and observations periods ranging from ^˜12 hours to as long as 30 hours (survival being designated at 24 hours). […] In mice: Varespladib 4-8 mg/kg subcutaneously or orally with methylvarespladib, taken ad libitum. In rats, varespladib or excipient was administered intravenously at 30 seconds or 5 minutes following subcutaneous administration of venom at 4 or 8 mg/kg. Blood sampling and assay for sPLA2 activity was performed with samples taken from a surgically implanted jugular venous catheter at precise intervals (baseline, 30 minutes, 1 hour and 4 hours).
6B Mice fed methylvarespladib or exipient ad libitum in biscuits had high-dose M. fulvius venom administered ^˜5 hours after introduction of the biscuits (N=2 each group). […] 6C Venom and varespladib (4 mg/kg) or venom and excipient were mixed just prior to administration and injected subcutaneously. At 5 hours (300 minutes, down-pointing arrow), surviving animals were retreated with ½ dose varespladib (2 mg/kg) or excipient. […] Mice either received venom and sham/excipient (N=7), methylvarespladib (N=3) or varespladib (N=7) ^˜30 seconds to 1.5 minute following venom administration. […] Confirmatory experiments and results of 6E-H were performed in rats by a contract laboratory to assess expand knowledge of varespladib's capacity to act in therapeutic mode and see if the effects of intravenous administration were similar to subcutaneous administration. 6E and 6F M. fulvius venom was administered subcutaneously (4 mg/kg or 8 mg/kg) and then excipient or varespladib 8 mg/kg was administered at 30 seconds or 5 minutes after envenomation.

“Also recorded” adds a separate entry of the source. Where a SMILES comes first, the peptide text is derived from it. Some results are limits rather than exact numbers.

This is an account of results in patent US11000506B2, “Envenomation therapies and related pharmaceutical compositions, systems and kits” (OPHIREX, INC, priority 2014, dated 2021).

Regarding `CCCCC[C@H](CC(=O)NO)C(=O)N[C@H](C(=O)N1CCC[C@H]1CO)C(C)C` [Actinonin], the “percental (%) reduction of MP activity” value in [1] amounted to 92%. Regarding `COC(=O)[C@H](Cc1ccccc1)NC(=O)[C@@H](N)CC(=O)O` [Aspartame] (H-Asp-Phe-OMe), the “percental (%) reduction of MP activity” value in [1] is reported as 6.31%. The “% Effect on E. carinatus venom MP” value in test [2] is on record as 6%. Consider `COc1ccc(S(=O)(=O)N(Cc2cccnc2)[C@@H](C(=O)NO)C(C)C)cc1` [CGS 27023], for which the “percental (%) reduction of MP activity” value in [1] is given as more than 95%. Turning to `CCN(CC)CC(=O)Nc1c(C)cccc1C` [Lidocaine], in test [3], the “% effect (% inhibition) on M. fulvius venom PLA2” value (shortened to “% effect (% inhibition)”) amounted to 11%.

Take `CC(=O)N[C@@H](CS)C(=O)O` [NAC, N-Acetyl Cysteine]: in test [4], the “inhibition of metalloproteinase activity (time course)” value is reported as “varying levels of MP inhibition”.

Consider `NC[C@H](O)c1ccc(O)c(O)c1` [Norepinephrine], for which, in [2], the “% Effect on E. carinatus venom MP” value came out at 28%. For the compound `Cc1ccc(C(=O)Nc2ccc(S(=O)(=O)O)c3cc(S(=O)(=O)O)cc(S(=O)(=O)O)c23)cc1NC(=O)c1cccc(NC(=O)Nc2cccc(C(=O)Nc3cc(C(=O)Nc4ccc(S(=O)(=O)O)c5cc(S(=O)(=O)O)cc(S(=O)(=O)O)c45)ccc3C)c2)c1` [Suramin], the “% effect (% inhibition)” value in test [3] stood at 21%.

Regarding `O=C(CCCCCCC(=O)Nc1ccccc1)NO` [Vorinostat], the “percental (%) reduction of MP activity” value in test [1] is 42%. As to `CCCCN1CCCCC1C(=O)Nc1c(C)cccc1C` (stereo not drawn) [bupvicaine], in [2], the “% Effect on E. carinatus venom MP” value is on record as more than 10%. As to `CCN(CC)CCN(Cc1ccc(-c2ccc(C(F)(F)F)cc2)cc1)C(=O)Cn1c(SCc2ccc(F)cc2)nc(=O)c2c1CCC2` [darapladib], the “inhibition of bee venom PLA2” value in test [5] is “not inhibited”. For the compound `CCOC(=O)c1ccc(OC(=O)CCCCCNC(=N)N)cc1` [gabexate, ethyl-p[6-guanidinohexanoyloxy]-benzoate methansulfonate], the “MP inhibition (in words)” value in test [1] is listed as “MP inhibition was seen”. Also, in test [2], the “% Effect on E. carinatus venom MP” value came out at 23%. Moreover, the “IC50s on various venoms” value in test [6] is recorded as “micromolar range”. For `CNC(=O)[C@@H](NC(=O)[C@H](CC(C)C)[C@H](O)C(=O)NO)C(C)(C)C` [marimastat], the “inhibition of metalloproteinase activity (time course)” value in [4] was “most consistently showing significant inhibition”. In test [7], the “inhibition of Daboia russelli venom MP over time” value is listed as “comparable inhibition”. As to `CCc1c(C(=O)C(N)=O)c2c(OCC(=O)OC)cccc2n1Cc1ccccc1` [methylvarespladib], the “inhibitory effects on snake venom serine proteases” value in [8] was “unexpected inhibitory effects”. For the same compound, the “inhibition of snake venom PLA2 in vitro” value in [9] was “inhibited the measured sPLA2 activity of several medically important snake venoms”. The “inhibition of bee venom PLA2” value in test [5] is listed as “only a modest effect”. Also, the “signs or symptoms of envenomation / protection from the effects of the venom” value in test [10] is listed as “complete protection; also recorded: Neither treated mouse exhibited any signs or symptoms of envenomation”. Regarding Ceramide, the “% effect (% inhibition)” value in test [3] is reported as 43%.
